Assay results published in PubChem BioAssay (NCI).
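All cell lines were grown in 96-well plates and treated with compound for 48 hours. Definition used: TGI = concentration required for complete inhibition of growth.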

Experiments:
Experiment in all cases: NCI-60 cell line screen, 48 h
U251 CNS = test system: U251 CNS
HCT-15 colon = test system: HCT-15 colon
MDA-N = test system: MDA-N
NCI/ADR-RES ovarian = test system: NCI/ADR-RES ovarian
EKVX NSCLC = test system: EKVX NSCLC
M14 melanoma = test system: M14 melanoma
HCC-2998 colon = test system: HCC-2998 colon
786-0 renal = test system: 786-0 renal
T-47D breast = test system: T-47D breast
SF-539 CNS = test system: SF-539 CNS
CCRF-CEM leukemia = test system: CCRF-CEM leukemia
OVCAR-5 ovarian = test system: OVCAR-5 ovarian
RPMI-8226 leukemia = test system: RPMI-8226 leukemia
MALME-3M melanoma = test system: MALME-3M melanoma
SNB-19 CNS = test system: SNB-19 CNS
K-562 leukemia = test system: K-562 leukemia
SK-MEL-2 melanoma = test system: SK-MEL-2 melanoma
OVCAR-8 ovarian = test system: OVCAR-8 ovarian
DU-145 prostate = test system: DU-145 prostate
HOP-92 NSCLC = test system: HOP-92 NSCLC
SK-OV-3 ovarian = test system: SK-OV-3 ovarian
NCI-H226 lung = test system: NCI-H226 lung
UO-31 renal = test system: UO-31 renal
NCI-H23 lung = test system: NCI-H23 lung
NCI-H522 lung = test system: NCI-H522 lung
SN12C renal = test system: SN12C renal
HCT-116 colon = test system: HCT-116 colon
NCI-H460 lung = test system: NCI-H460 lung
CAKI-1 renal = test system: CAKI-1 renal
SW-620 colon = test system: SW-620 colon
OVCAR-3 ovarian = test system: OVCAR-3 ovarian
SK-MEL-28 melanoma = test system: SK-MEL-28 melanoma
PC-3 prostate = test system: PC-3 prostate
HOP-62 NSCLC = test system: HOP-62 NSCLC
MOLT-4 leukemia = test system: MOLT-4 leukemia
MDA-MB-435 = test system: MDA-MB-435
LOX IMVI melanoma = test system: LOX IMVI melanoma
SF-268 CNS = test system: SF-268 CNS
KM12 colon = test system: KM12 colon
A498 renal = test system: A498 renal
MCF7 breast = test system: MCF7 breast
UACC-62 melanoma = test system: UACC-62 melanoma
BT-549 breast = test system: BT-549 breast
IGROV1 ovarian = test system: IGROV1 ovarian
MDA-MB-231 breast = test system: MDA-MB-231 breast
SR leukemia = test system: SR leukemia
HS 578T breast = test system: HS 578T breast
SF-295 CNS = test system: SF-295 CNS
A549 NSCLC = test system: A549 NSCLC
HT29 colon = test system: HT29 colon
SK-MEL-5 melanoma = test system: SK-MEL-5 melanoma
UACC-257 melanoma = test system: UACC-257 melanoma
HL-60(TB) leukemia = test system: HL-60(TB) leukemia
ACHN renal = test system: ACHN renal
SNB-75 CNS = test system: SNB-75 CNS
COLO 205 colon = test system: COLO 205 colon
TK-10 renal = test system: TK-10 renal
OVCAR-4 ovarian = test system: OVCAR-4 ovarian
RXF 393 renal = test system: RXF 393 renal

CNC1C(O)C(OC2C(N)CC(N)C(OC3OC(CN)=CCC3N)C2O)OCC1(C)O (stereo unspecified)
TGI (U251 CNS): > 100 µM | TGI (HCT-15 colon): > 100 µM | TGI (MDA-N): > 100 µM | TGI (NCI/ADR-RES ovarian): > 100 µM | TGI (EKVX NSCLC): > 100 µM | TGI (M14 melanoma): > 100 µM | TGI (HCC-2998 colon): > 100 µM | TGI (786-0 renal): > 100 µM | TGI (T-47D breast): > 100 µM | TGI (SF-539 CNS): > 100 µM | TGI (CCRF-CEM leukemia): > 100 µM | TGI (OVCAR-5 ovarian): > 100 µM | TGI (RPMI-8226 leukemia): > 100 µM | TGI (MALME-3M melanoma): > 100 µM | TGI (SNB-19 CNS): > 100 µM | TGI (K-562 leukemia): > 100 µM | TGI (SK-MEL-2 melanoma): > 100 µM | TGI (OVCAR-8 ovarian): > 100 µM | TGI (DU-145 prostate): > 100 µM | TGI (HOP-92 NSCLC): > 100 µM | TGI (SK-OV-3 ovarian): > 100 µM | TGI (NCI-H226 lung): > 100 µM | TGI (UO-31 renal): > 100 µM | TGI (NCI-H23 lung): > 100 µM | TGI (NCI-H522 lung): > 100 µM | TGI (SN12C renal): > 100 µM | TGI (HCT-116 colon): > 100 µM | TGI (NCI-H460 lung): > 100 µM | TGI (CAKI-1 renal): > 100 µM | TGI (SW-620 colon): > 100 µM | TGI (OVCAR-3 ovarian): > 100 µM | TGI (SK-MEL-28 melanoma): > 100 µM | TGI (PC-3 prostate): > 100 µM | TGI (HOP-62 NSCLC): > 100 µM | TGI (MOLT-4 leukemia): > 100 µM | TGI (MDA-MB-435): > 100 µM | TGI (LOX IMVI melanoma): > 100 µM | TGI (SF-268 CNS): > 100 µM | TGI (KM12 colon): > 100 µM | TGI (A498 renal): > 100 µM | TGI (MCF7 breast): > 100 µM | TGI (UACC-62 melanoma): > 100 µM | TGI (BT-549 breast): > 100 µM | TGI (IGROV1 ovarian): > 100 µM | TGI (MDA-MB-231 breast): > 100 µM | TGI (SR leukemia): > 100 µM | TGI (HS 578T breast): > 100 µM | TGI (SF-295 CNS): > 100 µM | TGI (A549 NSCLC): > 100 µM | TGI (HT29 colon): > 100 µM | TGI (SK-MEL-5 melanoma): > 100 µM | TGI (UACC-257 melanoma): > 100 µM | TGI (HL-60(TB) leukemia): > 100 µM | TGI (ACHN renal): > 100 µM | TGI (SNB-75 CNS): > 100 µM | TGI (COLO 205 colon): > 100 µM

O=C1c2sc(-c3ccc(F)cc3)cc2-n2cccc21
TGI (U251 CNS): 40.2 µM | TGI (HCT-15 colon): > 100 µM | TGI (MDA-N): > 100 µM | TGI (NCI/ADR-RES ovarian): > 100 µM | TGI (EKVX NSCLC): > 100 µM | TGI (M14 melanoma): > 100 µM | TGI (HCC-2998 colon): > 100 µM | TGI (786-0 renal): 32.2 µM | TGI (T-47D breast): > 100 µM | TGI (TK-10 renal): 50.7 µM | TGI (CCRF-CEM leukemia): > 100 µM | TGI (OVCAR-4 ovarian): > 100 µM | TGI (OVCAR-5 ovarian): > 100 µM | TGI (RPMI-8226 leukemia): > 100 µM | TGI (MALME-3M melanoma): > 100 µM | TGI (SNB-19 CNS): 39.6 µM | TGI (K-562 leukemia): 74.2 µM | TGI (SK-MEL-2 melanoma): > 100 µM | TGI (OVCAR-8 ovarian): > 100 µM | TGI (DU-145 prostate): > 100 µM | TGI (SK-OV-3 ovarian): 63 µM | TGI (NCI-H226 lung): 82.2 µM | TGI (UO-31 renal): > 100 µM | TGI (NCI-H522 lung): > 100 µM | TGI (SN12C renal): 49.6 µM | TGI (RXF 393 renal): 73.1 µM | TGI (HCT-116 colon): 58.7 µM | TGI (NCI-H460 lung): > 100 µM | TGI (CAKI-1 renal): 34.5 µM | TGI (SW-620 colon): > 100 µM | TGI (OVCAR-3 ovarian): > 100 µM | TGI (SK-MEL-28 melanoma): > 100 µM | TGI (PC-3 prostate): > 100 µM | TGI (HOP-62 NSCLC): 37.3 µM | TGI (MOLT-4 leukemia): > 100 µM | TGI (MDA-MB-435): > 100 µM | TGI (LOX IMVI melanoma): > 100 µM | TGI (SF-268 CNS): 52.1 µM | TGI (KM12 colon): > 100 µM | TGI (A498 renal): 62.8 µM | TGI (MCF7 breast): > 100 µM | TGI (UACC-62 melanoma): > 100 µM | TGI (BT-549 breast): > 100 µM | TGI (IGROV1 ovarian): 38.3 µM | TGI (MDA-MB-231 breast): 86.3 µM | TGI (SR leukemia): > 100 µM | TGI (HS 578T breast): 62.7 µM | TGI (SF-295 CNS): 93.9 µM | TGI (A549 NSCLC): > 100 µM | TGI (HT29 colon): > 100 µM | TGI (SK-MEL-5 melanoma): > 100 µM | TGI (UACC-257 melanoma): > 100 µM | TGI (ACHN renal): > 100 µM | TGI (SNB-75 CNS): 43.7 µM | TGI (COLO 205 colon): > 100 µM
